Reference: US9200046B2, “Reporter system for high throughput screening of compounds and uses thereof” (priority 2011, dated 2015)
Structures can show the parent of a compound that is named as a salt. Where two headings read alike, the source gives them in different places.

Molecular target: Nrf2-Keap1 complex (Homo sapiens, UniProt Q14145)
Assay: cell-based
Assay type: cell-based
Conditions: for activation at 16 µM / activation at 32 µM: 3 h; for activation at 16 µM: read-out: Activation 100 nL; for activation at 32 µM: read-out: Activation 200 nL
[1] = Table 2, 100 nL compound, screen run at 16 and 32 μM, 3 hr
[2] = Table 2, 200 nL compound, screen run at 16 and 32 μM, 3 hr
[3] = Table 1A, 100 nL compound, screen run at 16 and 32 μM, 3 hr
[4] = Table 1A, 200 nL compound, screen run at 16 and 32 μM, 3 hr

Chain of Nrf2-Keap1 complex (Q14145 whole entry, one chain of several): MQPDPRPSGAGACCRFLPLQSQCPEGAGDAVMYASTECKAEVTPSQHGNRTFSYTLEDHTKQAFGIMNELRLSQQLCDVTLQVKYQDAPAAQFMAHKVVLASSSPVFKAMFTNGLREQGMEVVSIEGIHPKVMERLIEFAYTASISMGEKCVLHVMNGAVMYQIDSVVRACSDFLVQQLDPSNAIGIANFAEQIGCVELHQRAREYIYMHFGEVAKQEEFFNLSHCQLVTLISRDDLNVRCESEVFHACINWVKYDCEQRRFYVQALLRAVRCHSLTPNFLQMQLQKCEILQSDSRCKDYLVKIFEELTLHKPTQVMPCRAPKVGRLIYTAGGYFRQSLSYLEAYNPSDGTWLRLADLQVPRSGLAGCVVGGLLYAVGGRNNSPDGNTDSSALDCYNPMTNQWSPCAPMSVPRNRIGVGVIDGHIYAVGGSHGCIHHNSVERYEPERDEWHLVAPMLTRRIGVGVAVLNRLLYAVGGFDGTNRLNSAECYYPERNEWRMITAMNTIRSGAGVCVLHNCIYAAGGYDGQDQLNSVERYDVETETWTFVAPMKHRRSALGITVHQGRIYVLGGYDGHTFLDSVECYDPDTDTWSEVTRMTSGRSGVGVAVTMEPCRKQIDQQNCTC

CCCCC(CC)CNC(=N)NC(=N)NCCCCCCNC(=N)NC(=N)NCC(CC)CCCC (stereo not drawn) [ALEXIDINEHYDROCHLORIDE]
activation at 16 µM: 101% | activation at 32 µM: -18% | 100 nL (luminescence) [1]: 1900 | 200 nL (luminescence) [2]: 52

S=c1ccss1 [3H-1,2-DITHIOLE-3-THIONE]
activation at 16 µM: 295% | activation at 32 µM: 127% | 100 nL (luminescence) [1]: 5416 | 200 nL (luminescence) [2]: 2832

CC(=O)O[C@H]1CCC2(C)C3=C(CCC2C1(C)C)[C@@]1(C)CC[C@@H](C(C)CCC=C(C)C)[C@]1(C)CC3 (stereo partly drawn) [EUPHOLACETATE]
Activation 100 nL: 89% | Activation 200 nL: 111% | 100 nL (luminescence) [1]: 1710 | 200 nL (luminescence) [2]: 2020

CC1=C2C(=CO[C@H](C)[C@H]2C)C(O)=C(C(=O)O)C1=O [CITRININ]
activation at 16 µM: 219% | activation at 32 µM: 217%

C=C(C)[C@H]1Cc2c(ccc3c2O[C@@H]2COc4cc(OC)c(OC)cc4[C@@H]2C3=O)O1 [ROTENONE]
activation at 16 µM: 31% | activation at 32 µM: 30% | 100 nL (luminescence) [1]: 776 | 200 nL (luminescence) [2]: 1136

CC(=O)OC1CCC23CC1(C)CCC2C(C)(C)CC3OC(C)=O (stereo not drawn) [CLOVANEDIOLDIACETATE]
activation at 16 µM: 27% | activation at 32 µM: 40% | 100 nL (luminescence) [1]: 728 | 200 nL (luminescence) [2]: 1356

COC1=CC(=O)C[C@@H](C)[C@]12Oc1c(Cl)c(OC)cc(OC)c1C2=O [GRISEOFULVIN, reference compound]
activation at 16 µM: 41% | activation at 32 µM: 182% | 100 nL (luminescence) [1]: 1208 | 200 nL (luminescence) [2]: 3684

CCC(C)C(=O)OC1[C@@H]2CC3=C4CC(=O)O[C@@H](c5ccoc5)[C@]4(C)CCC3[C@@](C)(C2=O)[C@@H](CC(=O)OC)C1(C)C (stereo partly drawn) [KHAYASIN]
activation at 16 µM: 90% | activation at 32 µM: 105% | 100 nL (luminescence) [1]: 1736 | 200 nL (luminescence) [2]: 1928

COc1cc(OC)c2c(=O)c(O)c(-c3ccc(OC)c(OC)c3)oc2c1
Activation 100 nL: 29% | Activation 200 nL: 8% | 100 nL (luminescence) [1]: 760 | 200 nL (luminescence) [2]: 644

CC(C)c1ccc2c(c1O)CC[C@H]1C3=C(CC[C@]21C)C(=O)OC3 [TRIPTOPHENOLIDE]
activation at 16 µM: 35% | activation at 32 µM: -3% | 100 nL (luminescence) [1]: 832 | 200 nL (luminescence) [2]: 390

Cc1coc2c1C(=O)C(=O)c1c-2ccc2c1CCCC2(C)C [TANSHINONEIIA]
activation at 16 µM: 354% | activation at 32 µM: 87% | 100 nL (luminescence) [1]: 5092 | 200 nL (luminescence) [2]: 2452

O=[N+]([O-])c1cccc2c(Br)n[nH]c12 [3-BROMO-7-NITROINDAZOLE]
hit strength in the screen (words): modest hits | activation at 16 µM: 30% | activation at 32 µM: 8% | 100 nL (luminescence) [3]: 632 | 200 nL (luminescence) [4]: 512

O=C1c2ccccc2C(=O)c2c(O)c(O)cc(O)c21 [PURPURIN]
activation at 16 µM: 54% | activation at 32 µM: 41% | 100 nL (luminescence) [1]: 1176 | 200 nL (luminescence) [2]: 952

COc1cc2c(c(OC)c1OC)-c1ccc(OC)c(=O)cc1[C@@H](NC(C)=O)CC2 [COLCHICINE, reference compound]
100 nL (luminescence): 944 | 200 nL (luminescence): 840 | activation at 16 µM: 49% | activation at 32 µM: 24%

COc1cc(O)c(C(=O)/C=C/c2ccccc2)c(OC)c1 [FLAVOKAWAINB]
activation at 16 µM: 144% | activation at 32 µM: -21% | 100 nL (luminescence) [1]: 2564 | 200 nL (luminescence) [2]: 8

CC(=O)Oc1cc2c(cc1OC(C)=O)[C@@H]1c3ccc(OC(C)=O)c(OC(C)=O)c3OC[C@]1(OC(C)=O)C2 [HAEMATOXYLINPENTAACETATE]
Activation 100 nL: 50% | Activation 200 nL: 37% | 100 nL (luminescence) [1]: 1040 | 200 nL (luminescence) [2]: 1304

NCCc1cc(O)c(O)cc1O [OXIDOPAMINEHYDROCHLORIDE]
activation at 16 µM: 107% | activation at 32 µM: 124% | 100 nL (luminescence) [1]: 1676 | 200 nL (luminescence) [2]: 2936

CCCOc1ccc2nc(NC(=O)OC)[nH]c2c1 [OXIBENDAZOLE, reference compound]
activation at 16 µM: 38% | activation at 32 µM: 36% | 100 nL (luminescence) [3]: 1164 | 200 nL (luminescence) [4]: 1064

CC(=O)O[C@@H]1CC2C(C)(C)[C@H](O)CC[C@]2(C)C2CC[C@@]3(C)[C@H](c4ccoc4)OC(=O)C4OC43[C@@]21C (stereo partly drawn) [alpha-DIHYDROGEDUNOL]
Activation 100 nL: 41% | Activation 200 nL: 29% | Neh2-luc reporter activation: 40% | 100 nL (luminescence) [1]: 720 | 200 nL (luminescence) [2]: 1008

CC1CCc2cc(F)cc3c(=O)c(C(=O)O)cn1c23 (stereo not drawn) [FLUMEQUINE, reference compound]
100 nL (luminescence): 1156 | 200 nL (luminescence): 368 | activation at 16 µM: 38% | activation at 32 µM: -2%

C[C@]12C=CC(=O)C=C1CC[C@@H]1[C@@H]2CC[C@]2(C)C(=O)CC[C@@H]12 [ANDROSTA-1,4-DIEN-3,17-DIONE]
activation at 16 µM: 81% | activation at 32 µM: 70% | 100 nL (luminescence) [1]: 1444 | 200 nL (luminescence) [2]: 2048

CC(C)=CCCC1(C)C=Cc2c(O)c3c(c(CC=C(C)C)c2O1)OC12C(CC4CC1C(C)(C)OC2(C/C=C(/C)C(=O)O)C4O)C3=O (stereo not drawn) [TETRAHYDROGAMBOGICACID]
Activation 100 nL: 383% | Activation 200 nL: 100% | 100 nL (luminescence) [1]: 5480 | 200 nL (luminescence) [2]: 2748

CCOc1ccc(C(=O)c2ccc(OC)c(O)c2O)cc1 [2,3-DIHYDROXY-4-METHOXY-4′-ETHOXYBENZOPHENONE]
activation at 16 µM: 117% | activation at 32 µM: 65% | 100 nL (luminescence) [1]: 2142 | 200 nL (luminescence) [2]: 1324

COc1ccc2cc1Oc1ccc(cc1)C[C@H]1c3cc(c(OC)cc3CCN1C)Oc1c(OC)c(OC)cc3c1[C@H](C2)N(C)CC3 [TETRANDRINE]
activation at 16 µM: 85% | activation at 32 µM: 18% | 100 nL (luminescence) [3]: 1660 | 200 nL (luminescence) [4]: 596

Nc1nc(N)c2nc(-c3ccccc3)c(N)nc2n1 [reference compound]
activation at 16 µM: 405% | activation at 32 µM: 23% | 100 nL (luminescence) [3]: 3914 | 200 nL (luminescence) [4]: 872

CC(=O)O[C@@H]1C[C@H]2C(C)(C)C(=O)CC[C@]2(C)[C@H]2CC[C@@]3(C)[C@H](c4ccoc4)OC(=O)[C@H]4O[C@]43[C@@]21C [DIHYDROGEDUNIN]
activation at 16 µM: 112% | activation at 32 µM: 114% | 100 nL (luminescence) [1]: 1866 | 200 nL (luminescence) [2]: 3068

Oc1nc2cc(Cl)c(Cl)cc2nc1O [2,3-DIHYDROXY-6,7-DICHLOROQUINOXALINE]
activation at 16 µM: 46% | activation at 32 µM: 109% | 100 nL (luminescence) [1]: 1056 | 200 nL (luminescence) [2]: 1992

CC(=O)O[C@H]1CC[C@]2(C)C(C[C@@H](OC(C)=O)[C@]3(C)C4=CC(=O)O[C@H](c5ccoc5)[C@@]4(C)CCC23)C1(C)C (stereo partly drawn) [3-DEOXO-3beta-ACETOXYDEOXYDIHYDROGEDUNIN]
Activation 100 nL: 59% | Activation 200 nL: 61% | 100 nL (luminescence) [1]: 1256 | 200 nL (luminescence) [2]: 1252

COc1ccc(C(=O)/C=C/c2ccccc2)cc1 [4′-METHOXYCHALCONE]
activation at 16 µM: 134% | activation at 32 µM: -15% | 100 nL (luminescence) [1]: 2400 | 200 nL (luminescence) [2]: 102

COc1ccc(C(=O)c2ccccc2)c(O)c1O
Activation 100 nL: 47% | Activation 200 nL: 37% | 100 nL (luminescence) [1]: 780 | 200 nL (luminescence) [2]: 1212
